Test results taken from US20070128217A1 (priority 2003, published 2007).

Experiments:
[1] = system: antibodies in sera from SARS patients (sera 1a, 1b, 2, 6, 37, 62, London, SARS-yellow, SARS-green); assay type: binding, human; parameters: Binding of serum 6 to linear peptides of protein X1 of SARS-CoV Urbani / Binding of serum 37 to linear peptides of protein X1 of SARS-CoV Urbani / Binding of serum 6 to looped/cyclic peptide (PEPSCAN-ELISA) / Binding of serum 37 to looped/cyclic peptide (PEPSCAN-ELISA) / Binding of serum 37 to looped/cyclic peptides of protein X1 of SARS-CoV Urbani / Binding of serum 6 to linear peptides of protein X2 / Binding of serum 37 to linear peptides of protein X2 / Binding of serum 37 to looped/cyclic peptides of protein X2 of SARS-CoV Urbani / Binding of serum 6 to linear peptides of protein M of SARS-CoV Urbani / Binding of serum 37 to linear peptides of protein M of SARS-CoV Urbani / Binding of serum 6 to looped/cyclic peptides of protein M of SARS-CoV Urbani / Binding of serum 37 to looped/cyclic peptides of protein M of SARS-CoV Urbani / Binding of serum 6 to linear peptides of protein X3 of SARS-CoV Urbani / Binding of serum 37 to linear peptides of protein X3 of SARS-CoV Urbani / Binding of serum 37 to looped/cyclic peptides of protein X3 of SARS-CoV Urbani / Binding of serum 6 to linear peptides of protein X4 of SARS-CoV Urbani / Binding of serum 37 to linear peptides of protein X4 of SARS-CoV Urbani / Binding of serum 37 to looped/cyclic peptides of protein X4 of SARS-CoV Urbani / Binding of serum 6 to linear peptides of protein X5 of SARS-CoV Urbani / Binding of serum 37 to linear peptides of protein X5 of SARS-CoV Urbani / Binding of serum 37 to looped/cyclic peptides of protein X5 of SARS-CoV Urbani / Binding of serum 6 to linear peptides of protein N of SARS-CoV Urbani / Binding of serum 37 to linear peptides of protein N of SARS-CoV Urbani / Binding of serum 6 to linear peptide (PEPSCAN-ELISA) / Binding of serum 1a to looped/cyclic peptides of protein N of SARS-CoV Urbani / Binding of serum 1b to looped/cyclic peptides of protein N of SARS-CoV Urbani / Binding of serum 2 to looped/cyclic peptides of protein N of SARS-CoV Urbani / Binding of serum 6 to looped/cyclic peptides of protein N of SARS-CoV Urbani / Binding of serum 37 to looped/cyclic peptides of protein N of SARS-CoV Urbani / Binding of serum 62 to looped/cyclic peptides of protein N of SARS-CoV Urbani / Binding of serum London to looped/cyclic peptides of protein N of SARS-CoV Urbani / Binding of serum SARS-green to looped/cyclic peptides of protein N of SARS-CoV Urbani: unit not given here
[2] = system: rabbit serum obtained by immunizing a rabbit with the SARS-CoV strain Frankfurt 1; assay type: binding; parameters: Binding of a rabbit serum to linear peptides / Binding of a rabbit serum to looped peptides / Rabbit serum linear peptides / Rabbit serum looped peptides / Binding of a rabbit serum to linear peptides of protein N of SARS-CoV Urbani (Rabbit serum linear peptides) / Binding of a rabbit serum to looped/cyclic peptides of protein N of SARS-CoV Urbani (Rabbit serum looped peptides): unit not given here
[3] = system: control sera (pooled serum of ten healthy LUMC hospital workers; commercial negative donor pooled serum from the Dutch bloodbank); assay type: binding, human; parameters: Binding of Control serum LUMC to linear peptides / Binding of Control serum Blood-bank to linear peptides / Binding of Control serum LUMC to looped peptides / Binding of Control Serum Blood-Bank to Looped peptides / Binding of Control serum LUMC to linear peptides of the protein M of SARS-CoV Urbani / Binding of Control serum Blood-bank to linear peptides of the protein M of SARS-CoV Urbani / Binding of Control serum LUMC to looped peptides of the protein M of SARS-CoV Urbani / Binding of Control Serum Blood-Bank to Looped peptides of the protein M of SARS-CoV Urbani: unit not given here

Sequence: DPAGGALIARCWYLH
- Binding of serum 1a to linear peptides of protein X5 of SARS-CoV Urbani [1]: 0.7
- Binding of serum 1a to looped/cyclic peptides of protein X5 of SARS-CoV Urbani [1]: 0.8
- Binding of serum 1b to linear peptides of protein X5 of SARS-CoV Urbani [1]: 0.6
- Binding of serum 1b to looped/cyclic peptides of protein X5 of SARS-CoV Urbani [1]: 0.5
- Binding of serum 2 to linear peptides of protein X5 of SARS-CoV Urbani [1]: 0.4
- Binding of serum 2 to looped/cyclic peptides of protein X5 of SARS-CoV Urbani [1]: 0.5
- Binding of serum 6 to linear peptides of protein X5 of SARS-CoV Urbani [1]: 0.5
- Binding of serum 6 to looped/cyclic peptides of protein X5 of SARS-CoV Urbani [1]: 0.4
- Binding of serum 37 to linear peptides of protein X5 of SARS-CoV Urbani [1]: 0.8
- Binding of serum 37 to looped/cyclic peptides of protein X5 of SARS-CoV Urbani [1]: 0.7
- Binding of serum 62 to linear peptides of protein X5 of SARS-CoV Urbani [1]: 0.7
- Binding of serum 62 to looped/cyclic peptides of protein X5 of SARS-CoV Urbani [1]: 0.6
- Binding of serum London to linear peptides of protein X5 of SARS-CoV Urbani [1]: 0.6
- Binding of serum London to looped/cyclic peptides of protein X5 of SARS-CoV Urbani [1]: 0.2
- Binding of serum SARS-green to linear peptides of protein X5 of SARS-CoV Urbani [1]: 0.6
- Binding of serum SARS-green to looped/cyclic peptides of protein X5 of SARS-CoV Urbani [1]: 0.6
- Binding of serum SARS-yellow to linear peptides of protein X5 of SARS-CoV Urbani [1]: 0.2
- Binding of serum SARS-yellow to looped/cyclic peptides of protein X5 of SARS-CoV Urbani [1]: 0.3
- Rabbit serum linear peptides [2]: 0.3
- Rabbit serum looped peptides [2]: 0.5
- Binding of Control Serum Blood-Bank to Looped peptides [3]: 0.8
- Binding of Control serum Blood-bank to linear peptides [3]: 0.7
- Binding of Control serum LUMC to linear peptides [3]: 0.3
- Binding of Control serum LUMC to looped peptides [3]: 0.6

Sequence: DPPNVQIHTIDGSSG
- Binding of serum 1a to linear peptides of protein X1 of SARS-CoV Urbani [1]: 0.5
- Binding of serum 1a to looped/cyclic peptides of protein X1 of SARS-CoV Urbani [1]: 0.4
- Binding of serum 1b to linear peptides of protein X1 of SARS-CoV Urbani [1]: 0.4
- Binding of serum 1b to looped/cyclic peptides of protein X1 of SARS-CoV Urbani [1]: 0.2
- Binding of serum 2 to linear peptides of protein X1 of SARS-CoV Urbani [1]: 0.3
- Binding of serum 2 to looped/cyclic peptides of protein X1 of SARS-CoV Urbani [1]: 0.2
- Binding of serum 6 to linear peptides of protein X1 of SARS-CoV Urbani [1]: 0.3
- Binding of serum 6 to looped/cyclic peptides of protein X1 of SARS-CoV Urbani [1]: 0.2
- Binding of serum 37 to linear peptides of protein X1 of SARS-CoV Urbani [1]: 0.5
- Binding of serum 37 to looped/cyclic peptides of protein X1 of SARS-CoV Urbani [1]: 0.3
- Binding of serum 62 to linear peptides of protein X1 of SARS-CoV Urbani [1]: 0.4
- Binding of serum 62 to looped/cyclic peptides of protein X1 of SARS-CoV Urbani [1]: 0.3
- Binding of serum London to linear peptides of protein X1 of SARS-CoV Urbani [1]: 0.2
- Binding of serum London to looped/cyclic peptides of protein X1 of SARS-CoV Urbani [1]: 0.2
- Binding of serum SARS-green to linear peptides of protein X1 of SARS-CoV Urbani [1]: 0.2
- Binding of serum SARS-green to looped/cyclic peptides of protein X1 of SARS-CoV Urbani [1]: 0.2
- Binding of serum SARS-yellow to linear peptides of protein X1 of SARS-CoV Urbani [1]: 0.2
- Binding of serum SARS-yellow to looped/cyclic peptides of protein X1 of SARS-CoV Urbani [1]: 0.2
- Binding of a rabbit serum to linear peptides [2]: 0.1
- Binding of a rabbit serum to looped peptides [2]: 0.4
- Binding of Control Serum Blood-Bank to Looped peptides [3]: 0.4
- Binding of Control serum Blood-bank to linear peptides [3]: 0.3
- Binding of Control serum LUMC to linear peptides [3]: 0.3
- Binding of Control serum LUMC to looped peptides [3]: 0.5

Sequence: DSGFAAYNRYRIGNY
- Binding of serum 1a to linear peptides of protein M of SARS-CoV Urbani [1]: 0.6
- Binding of serum 1a to looped/cyclic peptides of protein M of SARS-CoV Urbani [1]: 0.8
- Binding of serum 1b to linear peptides of protein M of SARS-CoV Urbani [1]: 0.4
- Binding of serum 1b to looped/cyclic peptides of protein M of SARS-CoV Urbani [1]: 0.6
- Binding of serum 2 to linear peptides of protein M of SARS-CoV Urbani [1]: 0.4
- Binding of serum 2 to looped/cyclic peptides of protein M of SARS-CoV Urbani [1]: 0.6
- Binding of serum 6 to linear peptides of protein M of SARS-CoV Urbani [1]: 0.5
- Binding of serum 6 to looped/cyclic peptides of protein M of SARS-CoV Urbani [1]: 0.6
- Binding of serum 37 to linear peptides of protein M of SARS-CoV Urbani [1]: 0.4
- Binding of serum 37 to looped/cyclic peptides of protein M of SARS-CoV Urbani [1]: 0.7
- Binding of serum 62 to linear peptides of protein M of SARS-CoV Urbani [1]: 0.4
- Binding of serum 62 to looped/cyclic peptides of protein M of SARS-CoV Urbani [1]: 0.6
- Binding of serum London to linear peptides of protein M of SARS-CoV Urbani [1]: 0.3
- Binding of serum London to looped/cyclic peptides of protein M of SARS-CoV Urbani [1]: 0.2
- Binding of serum SARS-green to linear peptides of protein M of SARS-CoV Urbani [1]: 0.3
- Binding of serum SARS-green to looped/cyclic peptides of protein M of SARS-CoV Urbani [1]: 0.4
- Binding of serum SARS-yellow to linear peptides of protein M of SARS-CoV Urbani [1]: 0.1
- Binding of serum SARS-yellow to looped/cyclic peptides of protein M of SARS-CoV Urbani [1]: 0.8
- Rabbit serum linear peptides [2]: 0.2
- Rabbit serum looped peptides [2]: 0.3
- Binding of Control Serum Blood-Bank to Looped peptides of the protein M of SARS-CoV Urbani [3]: 0.5
- Binding of Control serum Blood-bank to linear peptides of the protein M of SARS-CoV Urbani [3]: 0.5
- Binding of Control serum LUMC to linear peptides of the protein M of SARS-CoV Urbani [3]: 0.5
- Binding of Control serum LUMC to looped peptides of the protein M of SARS-CoV Urbani [3]: 0.5
